Test results reported in the kinase profiling compilation of Christmann-Franck et al. (2016).

Key:
Assay in all cases: KINOMEscan competition binding
Details in all cases: compound 1.0 µM
[1] = biological target: CDK15 (human) (UniProt Q96Q40)
[2] = biological target: FYN (human) (UniProt P06241)
[3] = biological target: MAP2K4 (human) (UniProt P45985)
[4] = test system: ABL1 (human), P00519 [E255K]
[5] = biological target: WEE2 (human) (UniProt P0C1S8)
[6] = biological target: TNK2 (human) (UniProt Q07912)
TNK2 (human), sequence (Q07912 whole entry, looked up): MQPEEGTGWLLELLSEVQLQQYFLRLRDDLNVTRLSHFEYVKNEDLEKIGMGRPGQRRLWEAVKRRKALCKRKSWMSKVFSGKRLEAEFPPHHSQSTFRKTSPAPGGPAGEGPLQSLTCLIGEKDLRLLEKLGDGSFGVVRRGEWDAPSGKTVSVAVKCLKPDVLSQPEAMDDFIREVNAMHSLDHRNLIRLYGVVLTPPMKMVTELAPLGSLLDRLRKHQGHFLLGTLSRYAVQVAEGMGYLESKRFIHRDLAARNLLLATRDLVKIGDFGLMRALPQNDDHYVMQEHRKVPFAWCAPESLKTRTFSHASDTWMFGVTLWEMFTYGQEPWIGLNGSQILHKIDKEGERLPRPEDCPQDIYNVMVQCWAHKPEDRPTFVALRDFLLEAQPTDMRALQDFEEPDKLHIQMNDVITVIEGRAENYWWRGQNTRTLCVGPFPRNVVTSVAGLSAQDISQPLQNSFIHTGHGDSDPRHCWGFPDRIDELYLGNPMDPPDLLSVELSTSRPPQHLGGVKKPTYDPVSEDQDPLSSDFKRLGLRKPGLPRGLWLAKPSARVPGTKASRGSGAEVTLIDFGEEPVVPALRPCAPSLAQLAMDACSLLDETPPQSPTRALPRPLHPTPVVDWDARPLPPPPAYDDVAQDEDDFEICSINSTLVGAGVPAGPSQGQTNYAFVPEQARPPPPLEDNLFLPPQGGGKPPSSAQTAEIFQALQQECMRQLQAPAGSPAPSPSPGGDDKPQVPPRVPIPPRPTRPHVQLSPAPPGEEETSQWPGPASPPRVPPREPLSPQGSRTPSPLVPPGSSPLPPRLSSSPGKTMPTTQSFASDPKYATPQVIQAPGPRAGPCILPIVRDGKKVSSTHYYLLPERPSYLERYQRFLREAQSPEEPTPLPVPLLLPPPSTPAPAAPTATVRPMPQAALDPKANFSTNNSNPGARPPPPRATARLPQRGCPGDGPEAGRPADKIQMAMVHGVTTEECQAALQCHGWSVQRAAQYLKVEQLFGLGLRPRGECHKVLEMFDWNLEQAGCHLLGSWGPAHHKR

[7] = biological target: HIPK4 (human) (UniProt Q8NE63)
[8] = biological target: GRK1 (human) (UniProt Q15835)
[9] = biological target: RIPK4 (human) (UniProt P57078)
[10] = biological target: MYO3B (human) (UniProt Q8WXR4)
[11] = biological target: BMP2K (human) (UniProt Q9NSY1)
[12] = biological target: CSNK2A2 (human) (UniProt P19784)
CSNK2A2 (human), sequence (P19784 whole entry, looked up): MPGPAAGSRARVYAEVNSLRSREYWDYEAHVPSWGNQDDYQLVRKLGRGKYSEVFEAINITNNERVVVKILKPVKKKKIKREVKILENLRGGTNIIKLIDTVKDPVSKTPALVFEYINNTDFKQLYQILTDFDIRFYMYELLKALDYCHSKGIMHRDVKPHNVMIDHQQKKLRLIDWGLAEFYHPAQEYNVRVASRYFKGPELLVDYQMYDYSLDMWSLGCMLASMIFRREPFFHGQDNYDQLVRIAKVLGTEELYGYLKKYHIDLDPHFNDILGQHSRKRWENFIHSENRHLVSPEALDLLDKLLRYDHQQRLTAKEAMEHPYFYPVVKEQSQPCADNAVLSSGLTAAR

[13] = biological target: MAST1 (human) (UniProt Q9Y2H9)
[14] = biological target: TAOK2 (human) (UniProt Q9UL54)
[15] = biological target: CSNK1A1 (human) (UniProt P48729)
[16] = biological target: MAPK8 (human) (UniProt P45983)
MAPK8 (human), sequence (P45983 whole entry, looked up): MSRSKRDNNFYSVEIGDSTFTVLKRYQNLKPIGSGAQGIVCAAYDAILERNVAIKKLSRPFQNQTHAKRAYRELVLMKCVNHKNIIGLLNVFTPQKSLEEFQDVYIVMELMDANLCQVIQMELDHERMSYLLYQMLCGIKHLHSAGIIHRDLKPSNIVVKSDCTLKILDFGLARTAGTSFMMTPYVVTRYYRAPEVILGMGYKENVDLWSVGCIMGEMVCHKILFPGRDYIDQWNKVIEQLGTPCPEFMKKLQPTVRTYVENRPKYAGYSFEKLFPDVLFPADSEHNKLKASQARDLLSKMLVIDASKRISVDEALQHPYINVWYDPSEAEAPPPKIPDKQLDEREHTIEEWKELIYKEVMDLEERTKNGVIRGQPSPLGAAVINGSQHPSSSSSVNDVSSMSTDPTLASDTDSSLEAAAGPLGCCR

[17] = biological target: DAPK1 (human) (UniProt P53355)
[18] = biological target: ADCK3 (human) (UniProt Q8NI60)
[19] = biological target: PRKD2 (human) (UniProt Q9BZL6)
PRKD2 (human), sequence (Q9BZL6 whole entry, looked up): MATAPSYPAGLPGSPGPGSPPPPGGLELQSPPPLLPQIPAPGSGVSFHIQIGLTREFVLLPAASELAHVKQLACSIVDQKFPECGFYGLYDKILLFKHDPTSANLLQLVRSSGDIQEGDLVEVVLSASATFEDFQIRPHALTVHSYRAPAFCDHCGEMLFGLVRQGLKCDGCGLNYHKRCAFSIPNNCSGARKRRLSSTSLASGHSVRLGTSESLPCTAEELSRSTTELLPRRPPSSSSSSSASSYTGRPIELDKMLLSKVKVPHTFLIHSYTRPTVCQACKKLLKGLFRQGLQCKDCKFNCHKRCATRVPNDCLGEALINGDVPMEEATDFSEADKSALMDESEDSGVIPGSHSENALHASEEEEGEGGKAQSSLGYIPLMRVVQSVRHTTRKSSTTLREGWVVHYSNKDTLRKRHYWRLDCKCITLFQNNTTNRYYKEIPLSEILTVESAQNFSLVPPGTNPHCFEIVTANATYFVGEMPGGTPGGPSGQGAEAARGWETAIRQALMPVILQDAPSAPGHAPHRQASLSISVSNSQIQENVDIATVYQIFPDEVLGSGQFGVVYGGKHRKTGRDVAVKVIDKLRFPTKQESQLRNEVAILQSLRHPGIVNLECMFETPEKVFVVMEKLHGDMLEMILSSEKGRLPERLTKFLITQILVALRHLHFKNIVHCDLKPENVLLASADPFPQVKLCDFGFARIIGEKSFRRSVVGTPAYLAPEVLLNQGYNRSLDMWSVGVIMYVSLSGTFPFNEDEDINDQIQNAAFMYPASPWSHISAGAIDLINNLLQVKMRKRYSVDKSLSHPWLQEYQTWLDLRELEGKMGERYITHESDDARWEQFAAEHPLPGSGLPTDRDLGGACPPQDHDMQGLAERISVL

[20] = biological target: HIPK3 (human) (UniProt Q9H422)
[21] = biological target: TGFBR1 (human) (UniProt P36897)
TGFBR1 (human), sequence (P36897 whole entry, looked up): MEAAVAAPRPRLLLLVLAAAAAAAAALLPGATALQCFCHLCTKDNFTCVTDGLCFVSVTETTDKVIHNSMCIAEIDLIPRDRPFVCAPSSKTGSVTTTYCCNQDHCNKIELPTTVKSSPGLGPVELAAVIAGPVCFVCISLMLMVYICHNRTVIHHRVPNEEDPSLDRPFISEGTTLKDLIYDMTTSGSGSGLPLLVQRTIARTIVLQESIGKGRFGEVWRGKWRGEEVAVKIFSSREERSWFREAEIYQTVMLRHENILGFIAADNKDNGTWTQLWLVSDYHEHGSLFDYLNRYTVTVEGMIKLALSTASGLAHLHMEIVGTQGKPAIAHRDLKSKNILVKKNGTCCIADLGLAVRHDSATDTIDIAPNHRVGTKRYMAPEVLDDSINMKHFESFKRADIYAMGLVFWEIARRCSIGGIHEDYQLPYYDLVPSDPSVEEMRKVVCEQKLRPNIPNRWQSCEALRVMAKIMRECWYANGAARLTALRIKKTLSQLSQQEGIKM

[22] = biological target: FLT1 (human) (UniProt P17948)
[23] = biological target: CHEK2 (human) (UniProt O96017)
[24] = biological target: STK39 (human) (UniProt Q9UEW8)
[25] = biological target: CIT (human) (UniProt O14578)
[26] = biological target: CDKL2 (human) (UniProt Q92772)
CDKL2 (human), sequence (Q92772 whole entry, looked up): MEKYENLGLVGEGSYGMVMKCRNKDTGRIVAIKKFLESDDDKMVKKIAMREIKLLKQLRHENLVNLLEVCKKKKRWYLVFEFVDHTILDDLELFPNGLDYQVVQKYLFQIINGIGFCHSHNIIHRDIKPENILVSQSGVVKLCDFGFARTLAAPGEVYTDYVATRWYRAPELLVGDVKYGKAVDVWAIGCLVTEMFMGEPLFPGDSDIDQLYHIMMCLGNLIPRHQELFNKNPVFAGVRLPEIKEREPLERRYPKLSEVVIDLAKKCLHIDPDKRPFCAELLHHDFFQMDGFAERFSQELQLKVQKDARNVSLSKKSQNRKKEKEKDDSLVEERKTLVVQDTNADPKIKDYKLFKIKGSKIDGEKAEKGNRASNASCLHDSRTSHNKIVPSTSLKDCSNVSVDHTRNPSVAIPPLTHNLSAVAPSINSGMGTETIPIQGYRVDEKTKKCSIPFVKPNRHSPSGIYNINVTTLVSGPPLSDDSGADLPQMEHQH

[27] = biological target: SRC (human) (UniProt P12931)
[28] = biological target: MAP3K11 (human) (UniProt Q16584)
[29] = biological target: EPHA5 (human) (UniProt P54756)
[30] = test system: EGFR (human), P00533 [P753S; 747-752 del]
[31] = biological target: SIK3 (human) (UniProt Q9Y2K2)
[32] = biological target: PTK2 (human) (UniProt Q05397)
[33] = biological target: CDK5 (human) (UniProt Q00535)
[34] = biological target: PRKD1 (human) (UniProt Q15139)
[35] = biological target: CAMK2A (human) (UniProt Q9UQM7)
[36] = biological target: AURKC (human) (UniProt Q9UQB9)
[37] = biological target: LIMK1 (human) (UniProt P53667)
LIMK1 (human), sequence (P53667 whole entry, looked up): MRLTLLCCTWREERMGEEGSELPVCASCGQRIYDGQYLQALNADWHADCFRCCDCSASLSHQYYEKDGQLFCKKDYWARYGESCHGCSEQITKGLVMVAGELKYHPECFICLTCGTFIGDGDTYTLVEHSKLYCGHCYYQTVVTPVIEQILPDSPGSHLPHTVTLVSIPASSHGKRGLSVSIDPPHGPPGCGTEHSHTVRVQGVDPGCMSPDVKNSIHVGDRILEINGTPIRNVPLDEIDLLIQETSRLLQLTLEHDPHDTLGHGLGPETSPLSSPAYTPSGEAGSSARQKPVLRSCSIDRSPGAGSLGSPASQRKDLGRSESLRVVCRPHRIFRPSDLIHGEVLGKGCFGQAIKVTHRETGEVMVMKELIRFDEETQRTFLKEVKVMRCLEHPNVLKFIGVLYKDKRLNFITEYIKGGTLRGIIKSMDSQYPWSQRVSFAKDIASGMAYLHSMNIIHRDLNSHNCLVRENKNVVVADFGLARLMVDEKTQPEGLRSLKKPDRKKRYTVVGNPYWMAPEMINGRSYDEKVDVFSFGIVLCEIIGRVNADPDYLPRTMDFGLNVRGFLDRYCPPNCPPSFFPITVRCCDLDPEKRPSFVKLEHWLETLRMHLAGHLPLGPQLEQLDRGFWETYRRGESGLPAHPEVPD

[38] = biological target: IRAK4 (human) (UniProt Q9NWZ3)
IRAK4 (human), sequence (Q9NWZ3 whole entry, looked up): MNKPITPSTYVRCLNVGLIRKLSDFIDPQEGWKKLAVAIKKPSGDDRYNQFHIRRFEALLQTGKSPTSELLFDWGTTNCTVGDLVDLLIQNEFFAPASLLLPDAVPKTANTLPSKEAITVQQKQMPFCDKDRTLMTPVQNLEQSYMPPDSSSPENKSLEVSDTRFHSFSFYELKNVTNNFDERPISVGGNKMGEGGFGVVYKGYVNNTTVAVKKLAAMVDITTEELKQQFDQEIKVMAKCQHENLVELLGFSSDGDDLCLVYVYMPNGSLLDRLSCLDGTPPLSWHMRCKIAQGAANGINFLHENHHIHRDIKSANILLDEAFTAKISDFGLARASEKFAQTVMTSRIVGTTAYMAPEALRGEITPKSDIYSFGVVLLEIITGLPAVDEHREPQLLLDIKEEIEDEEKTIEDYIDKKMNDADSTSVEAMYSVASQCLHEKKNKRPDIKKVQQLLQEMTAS

[39] = biological target: TSSK1B (human) (UniProt Q9BXA7)
[40] = test system: RET (human), P07949 [V804M]
[41] = biological target: CDC42BPG (human) (UniProt Q6DT37)
[42] = biological target: LATS2 (human) (UniProt Q9NRM7)
[43] = biological target: PRKACB (human) (UniProt P22694)

## COCCNCCCn1c(C(=O)CF)c(-c2ccc(C)cc2)c2c(N)ncnc21
[1]
  kinase still bound, per cent of control: 100%
[2]
  kinase still bound, per cent of control: 87%
[3]
  kinase still bound, per cent of control: 78%
[4]
  kinase still bound, per cent of control: 90%
[5]
  kinase still bound, per cent of control: 100%
[6]
  kinase still bound, per cent of control: 100%
[7]
  kinase still bound, per cent of control: 95%
[8]
  kinase still bound, per cent of control: 100%
[9]
  kinase still bound, per cent of control: 100%
[10]
  kinase still bound, per cent of control: 79%
[11]
  kinase still bound, per cent of control: 94%
[12]
  kinase still bound, per cent of control: 99%
[13]
  kinase still bound, per cent of control: 83%
[14]
  kinase still bound, per cent of control: 100%
[15]
  kinase still bound, per cent of control: 100%
[16]
  kinase still bound, per cent of control: 96%
[17]
  kinase still bound, per cent of control: 100%
[18]
  kinase still bound, per cent of control: 100%
[19]
  kinase still bound, per cent of control: 100%
[20]
  kinase still bound, per cent of control: 100%
[21]
  kinase still bound, per cent of control: 89%
[22]
  kinase still bound, per cent of control: 96%
[23]
  kinase still bound, per cent of control: 100%
[24]
  kinase still bound, per cent of control: 100%
[25]
  kinase still bound, per cent of control: 93%
[26]
  kinase still bound, per cent of control: 87%
[27]
  kinase still bound, per cent of control: 98%
[28]
  kinase still bound, per cent of control: 100%
[29]
  kinase still bound, per cent of control: 91%
[30]
  kinase still bound, per cent of control: 100%
[31]
  kinase still bound, per cent of control: 91%
[32]
  kinase still bound, per cent of control: 100%
[33]
  kinase still bound, per cent of control: 95%
[34]
  kinase still bound, per cent of control: 100%
[35]
  kinase still bound, per cent of control: 78%
[36]
  kinase still bound, per cent of control: 89%
[37]
  kinase still bound, per cent of control: 100%
[38]
  kinase still bound, per cent of control: 100%
[39]
  kinase still bound, per cent of control: 100%
[40]
  kinase still bound, per cent of control: 100%
[41]
  kinase still bound, per cent of control: 84%
[42]
  kinase still bound, per cent of control: 100%
[43]
  kinase still bound, per cent of control: 96%
